Results taken from patent US20190231757A1, “COMBINATION OF SPLEEN TYROSINE KINASE INHIBITORS AND OTHER THERAPEUTIC AGENTS” (Takeda Pharmaceutical Company Limited, priority 2016, published 2019).

Assays:
Format in all cases: in vivo, mouse
OCI-LY10 xenografts = test: Antitumor activity in CB17 SCID mice bearing OCI-LY10 xenografts, gemcitabine combination (Example 7); details: Day 21
Procedure: Tumor growth inhibition was calculated on Day 21 of the study. The last measurement was taken on Day 42 of the study.
(§1) Experimental design: Female CB17 SCID mice (Taconic Biosciences; weight at treatment start was 20 g) were inoculated subcutaneously in the flank (cell suspension) with 4.0×10^6 OCI-Ly10 cells. Tumor volume was calculated using the formula V=W^2×L/2, where V=volume, W=width and L=length of the tumor. When the mean tumor volume reached approximately 199 mm^3, the animals were randomized into 6 treatment groups (n=8/group). […] Tumor growth and body weight were measured twice per week. Tumor growth inhibition and body weight change were calculated on Day 21 of treatment.
(§2) Statistical analysis: The differences in the tumor growth trends over time between pairs of treatment groups were assessed using linear mixed effects regression models. These models account for the fact that each animal was measured at multiple time points. A separate model was fit for each comparison, and the areas under the curve (AUC) for each treatment group were calculated using the predicted values from the model. The percent decrease in AUC (dAUC) relative to the reference group was then calculated. […] Further details regarding pairwise comparisons are provided in the Example 2.
(§3) Drug combinations were assessed for synergy using observed AUC values. The change in AUC relative to the control was calculated for both single agent treatment groups as well as the combination group. The interaction between the two compounds was then assessed by comparing the change in AUC observed in the combination group to the sum of the changes observed in both single agents. The results can be divided into four categories: synergistic, additive, sub-additive, and antagonistic. Further details regarding combination analyses are provided in the Example 2.
(§4) Once a final analysis was selected, the tumor measurements observed on a date pre-specified by the researcher (typically the last day of treatment) were analyzed to assess tumor growth inhibition. For this analysis, a T/C ratio was calculated for each animal by dividing the tumor measurement for the given animal by the mean tumor measurement across all control animals. The T/C ratios across a treatment group were compared to the T/C ratios of the control group using a two-tailed Welch's t-test.

[1] = Body weight and tolerability, TMD8 ABT-199/gemcitabine study (Example 9); details: alone or combined with Compound A; for % BW Change (Day Maximum): Compound A 60 mg/kg PO QD 14 d, ABT-199 25 mg/kg PO QD 14 d, gemcitabine 5 mg/kg IP Q3D x4; for Number of animals removed: Compound A 60 mg/kg, ABT-199 25 mg/kg, gemcitabine 5 mg/kg
Procedure: as §1, with “about 19” for “20”, “5.0×10^6 TMD8” for “4.0×10^6 OCI-Ly10”, “cells. Tumor growth was monitored with vernier calipers.” for “cells.”, “245” for “199”, “14” for “21”

[2] = Body weight and tolerability, TMD8 gemcitabine study (Example 8); details: alone or combined
Procedure: as §1, with “19” for “20”, “5.0×10^6 TMD8” for “4.0×10^6 OCI-Ly10”, “cells. Tumor growth was monitored with vernier calipers.” for “cells.”, “215” for “199”, “into” for “into 6”, “14” for “21”

[3] = Body weight and tolerability, OCI-LY10 gemcitabine study (Example 7)
Procedure: as §1

TMD8 DLBCL xenografts [4] = test: Antitumor activity in CB17 SCID mice bearing TMD8 DLBCL xenografts, gemcitabine combination (Example 8); details: Day 14, alone or combined
Procedure: Tumor growth inhibition was calculated on Day 14 of the study. The last measurement was taken on Day 40 of the study.
as §1, with “19” for “20”, “5.0×10^6 TMD8” for “4.0×10^6 OCI-Ly10”, “cells. Tumor growth was monitored with vernier calipers.” for “cells.”, “215” for “199”, “into” for “into 6”, “14” for “21”
as §2
Drug combinations were assessed for synergy using observed AUC values. The change in AUC relative to the control was calculated for both single agent treatment groups as well as the combination group. The interaction between the two compounds was then assessed by comparing the change in AUC observed in the combination group to the sum of the changes observed in both single agents. The results can be divided into four categories: synergistic, additive, sub-additive, and antagonistic. Further details regarding combination analysis are provided in the Example 2.
as §4

TMD8 DLBCL xenografts [5] = test: Antitumor activity in CB17 SCID mice bearing TMD8 DLBCL xenografts, ABT-199 or gemcitabine combination (Example 9); details: Day 14, alone or combined with Compound A; for TGI (%): Compound A 60 mg/kg PO QD, ABT-199 25 mg/kg PO QD, gemcitabine 5 mg/kg IP Q3D x4; for Mean Tumor Volume (mm^3) ± SEM / T/C: Compound A 60 mg/kg, ABT-199 25 mg/kg, gemcitabine 5 mg/kg
Procedure: Tumor growth inhibition was calculated on Day 14 of the study. The last measurement was taken on Day 29 of the study.
as §1, with “about 19” for “20”, “5.0×10^6 TMD8” for “4.0×10^6 OCI-Ly10”, “cells. Tumor growth was monitored with vernier calipers.” for “cells.”, “245” for “199”, “14” for “21”
as §2, §3, §4

[6] = system: OCI-Ly10 human DLBCL xenografts; test: Antitumor activity in SCID mice bearing OCI-Ly10 human DLBCL xenografts, ibrutinib or bendamustine combination (Example 5); details: Day 21, Compound A 60 mg/kg PO QD, ibrutinib 6 mg/kg PO QD, bendamustine 1 mg/kg IV BIW (6 doses), alone or combined with Compound A
[7] = Body weight and tolerability, WSU-Luc ibrutinib study (Example 12); details: Compound A 60 mg/kg; ibrutinib 20 mg/kg; alone or combined
Procedure: (§5) Tumor growth was monitored with vernier calipers. Tumor volume was calculated using the formula V=W^2×L/2, where V=volume, W=width and L=length of the tumor. When the mean tumor volume reached approximately 190 mm^3, the animals were randomized into treatment groups (n=8/group). […] Tumor growth and body weight were measured twice per week. Tumor growth inhibition and body weight change were calculated on Day 20 of treatment.

[8] = system: WSU-Luc human lymphoma xenografts; test: Antitumor activity in SCID mice bearing WSU-Luc human lymphoma xenografts, ibrutinib combination (Example 12); details: Day 20, alone or combined
Procedure: The study ended on Day 20 of dosing.
as §5
Statistical analysis: The differences in the tumor growth trends over time between pairs of treatment groups were assessed using linear mixed effects regression models. These models account for the fact that each animal was measured at multiple time points. A separate model was fit for each comparison, and the areas under the curve (AUC) for each treatment group were calculated using the predicted values from the model. The percent decrease in AUC (dAUC) relative to the reference group was then calculated.
The change in AUC relative to the control was calculated for both single agent treatment groups as well as the combination group. […] The results can be divided into four categories: synergistic, additive, sub-additive, and antagonistic.
For this analysis, a T/C ratio was calculated for each animal by dividing the tumor measurement for the given animal by the mean tumor measurement across all control animals. The T/C ratios across a treatment group were compared to the T/C ratios of the control group using a two-tailed Welch's t-test.

[9] = system: Ly10 human lymphoma xenografts; test: Antitumor activity in SCID mice bearing Ly10 xenografts, rituximab combination (Example 13); details: alone or combined
[10] = system: OCI-Ly10 human lymphoma xenografts; test: Antitumor activity in SCID mice bearing OCI-Ly10 human lymphoma xenografts, bendamustine and rituximab (Example 6); details: Day 21; Compound A 30 mg/kg PO QD x21; bendamustine 1 mg/kg IV BIW; rituximab 1 mg/kg IV QW x3; alone or combined
[11] = system: Ly19 human lymphoma xenografts; test: Antitumor activity in SCID mice bearing Ly19 xenografts, rituximab combination (Example 14); details: alone or combined
OCI-LY 10 xenografts = test: Antitumor activity in CB17 SCID mice bearing OCI-LY10 xenografts, ABT-199 combination (Example 11); details: Day 21
Procedure: Tumor growth inhibition was calculated on Day 21 of the study. The last measurement was taken on Day 46 of the study.
as §1, with “(Charles River Laboratories, about 21 g” for “(Taconic Biosciences; weight”, “start)” for “start was 20 g)”, “cells. Tumor growth was monitored with vernier calipers.” for “cells.”, “175” for “199”, “into” for “into 6”, “(n=5/group).” for “(n=8/group).”
as §2, §3, §4

[12] = Body weight and tolerability, OCI-LY10 ABT-199 study (Example 11)
Procedure: as §1, with “(Charles River Laboratories, about 21 g” for “(Taconic Biosciences; weight”, “start)” for “start was 20 g)”, “cells. Tumor growth was monitored with vernier calipers.” for “cells.”, “175” for “199”, “into” for “into 6”, “(n=5/group).” for “(n=8/group).”

[13] = Compound A 60 mg/kg PO QD, gemcitabine 2.5 mg/kg IP Q3D, alone or combined
[14] = Compound A 60 mg/kg, gemcitabine 2.5 mg/kg, alone or combined
[15] = gemcitabine 5 mg/kg IP Q3D, alone or with Compound A 60 mg/kg PO QD
[16] = gemcitabine 5 mg/kg, alone or with Compound A 60 mg/kg
[17] = Compound A 60 mg/kg, gemcitabine 5 mg/kg
[18] = Compound A 60 mg/kg PO QD, gemcitabine 5 mg/kg IP Q3D x4
[19] = Compound A 60 mg/kg, ibrutinib 20 mg/kg
[20] = Day 21, Compound A 60 mg/kg PO QD x21, rituximab 1 mg/kg IV QW x3
[21] = Day 14, Compound A 60 mg/kg PO QD x14, rituximab 10 mg/kg IV QW x2
[22] = ABT-199 25 mg/kg, alone or with Compound A 60 mg/kg
[23] = Compound A 60 mg/kg, ABT-199 12.5 mg/kg, alone or combined

Nc1ccn([C@@H]2O[C@H](CO)[C@@H](O)C2(F)F)c(=O)n1 [gemcitabine]
Mean Tumor Volume (mm^3) ± SEM (OCI-LY10 xenografts; [13]): 561.7 ± 52.5 mm^3 | TGI (%) (OCI-LY10 xenografts; [13]): 52.6% | T/C (OCI-LY10 xenografts; [14]): 0.47 | Mean Tumor Volume (mm^3) ± SEM (OCI-LY10 xenografts; [15]): 331.3 ± 57.6 mm^3 | TGI (%) (OCI-LY10 xenografts; [15]): 72.1% | T/C (OCI-LY10 xenografts; [16]): 0.28 | % BW Change (Day Maximum) [1]: −0.2 (11) % | Number of animals removed [1]: 0 | % BW Change (Day Maximum) ([2]; Compound A 60 mg/kg PO QD 14 d, gemcitabine 5 mg/kg IP Q3D x4): −0.1 (4) % | Number of animals removed [2, 17]: 0 | % BW Change (Day Maximum) ([3]; Compound A 60 mg/kg PO QD 21 d, gemcitabine 2.5 mg/kg IP Q3D (4 doses), alone or combined): 7.5 (21) % | Number of animals removed [3, 14]: 0 | % BW Change (Day Maximum) ([3]; gemcitabine 5 mg/kg IP Q3D (4 doses), alone or with Compound A 60 mg/kg PO QD): −1.4 (3) % | Number of animals removed [3, 16]: 0 | Mean Tumor Volume (mm^3) ± SEM (TMD8 DLBCL xenografts [4]; [18]): 294.7 ± 36.5 mm^3 | TGI (%) (TMD8 DLBCL xenografts [4]; [18]): 67.1% | T/C (TMD8 DLBCL xenografts [4]; [17]): 0.33 | TGI (%) (TMD8 DLBCL xenografts [5]): 70.3% | Mean Tumor Volume (mm^3) ± SEM (TMD8 DLBCL xenografts [5]): 440.2 ± 70.9 mm^3 | T/C (TMD8 DLBCL xenografts [5]): 0.30

C=CC(=O)N1CCC[C@@H](n2nc(-c3ccc(Oc4ccccc4)cc3)c3c(N)ncnc32)C1 [ibrutinib]
TGI [6]: 18% | TGI ([6]; listed as Ibrutinib): 18.0% | Number of animals removed [7]: 0 | TGI (%) ([8]; Compound A 60 mg/kg PO QD, ibrutinib 20 mg/kg PO QD): 0.5% | Mean Tumor Volume (mm^3) ± SEM [8, 19]: 1,085.2 ± 109.9 mm^3 | T/C [8, 19]: 1.00

rituximab
Mean Tumor Volume (mm^3) ± SEM at Day 21 [9, 20]: 301.8 ± 30.8 mm^3 | TGI (%) [9, 20]: 66.7% | dAUC ([9]; vs vehicle, Compound A 60 mg/kg, rituximab 1 mg/kg): 77.6 | TGI [10]: 33.4% | Mean Tumor Volume (mm^3) ± SEM at Day 14 [11, 21]: 516.8 ± 113.3 mm^3 | TGI (%) [11, 21]: 79.5% | dAUC ([11]; vs vehicle, Compound A 60 mg/kg, rituximab 10 mg/kg): 61.8

CC1(C)CCC(CN2CCN(c3ccc(C(=O)NS(=O)(=O)c4ccc(NCC5CCOCC5)c([N+](=O)[O-])c4)c(Oc4cnc5[nH]ccc5c4)c3)CC2)=C(c2ccc(Cl)cc2)C1 [ABT-199, venetoclax]
% BW Change (Day Maximum) [1]: −0.4 (11) % | Number of animals removed [1]: 0 | TGI (%) (OCI-LY 10 xenografts; ABT-199 25 mg/kg PO QD, alone or with Compound A 60 mg/kg PO QD): 9.2% | Mean Tumor Volume (mm^3) ± SEM (OCI-LY 10 xenografts; [22]): 950.3 ± 182.1 mm^3 | T/C (OCI-LY 10 xenografts; [22]): 0.91 | TGI (%) (OCI-LY 10 xenografts; Compound A 60 mg/kg PO QD, ABT-199 12.5 mg/kg PO QD, alone or combined): −0.4% | Mean Tumor Volume (mm^3) ± SEM (OCI-LY 10 xenografts; [23]): 1,050.6 ± 221.4 mm^3 | T/C (OCI-LY 10 xenografts; [23]): 1.00 | TGI (%) (TMD8 DLBCL xenografts [5]): 29.1% | Mean Tumor Volume (mm^3) ± SEM (TMD8 DLBCL xenografts [5]): 1,048.9 ± 136.1 mm^3 | T/C (TMD8 DLBCL xenografts [5]): 0.71 | % BW Change (Day Maximum) ([12]; ABT-199 25 mg/kg PO QD 21 d, alone or with Compound A 60 mg/kg PO QD): −1.5 (14) % | Number of animals removed [12, 22]: 1 | % BW Change (Day Maximum) ([12]; Compound A 60 mg/kg PO QD 21 d, ABT-199 12.5 mg/kg PO QD 21 d, alone or combined): 4.6 (21) % | Number of animals removed [12, 23]: 0
